Columns and labels:
Type in all cases: in vivo
Nilaparvata lugens [1] = test: Insecticidal test against Nilaparvata lugens, spray on rice seedling; conditions: 144 h, acetone solution sprayed on rice seedling, 10 young larvae, 25° C., after 6 days, read-out: mortality rate
Experimental: (§1) Insecticidal Test Against Nilaparvata lugens
(§2) 2.5 ml of an acetone solution prepared to have a predetermined concentration of the test compound was sprayed on a rice (Oryza sativa) seedling, and the rice seedling was transferred to a glass tube in which water was retained. After air drying, 10 young larvae were released into the glass tube, and the glass tube was covered with a sponge stopper. The glass tube was allowed to stand in a thermostatic chamber at 25° C., and the numbers of living insects and dead insects were examined after 6 days.

Nilaparvata lugens [2] = test: Insecticidal test against Nilaparvata lugens, root part of rice seedling immersed; conditions: 144 h, 2% acetone aqueous solution, 10 young larvae, 25° C., after 6 days, read-out: mortality rate
Experimental: as §1
12.5 ml of a 2% acetone aqueous solution in which the test compound was adjusted to a predetermined concentration was placed in a container, and a root part of a rice (Oryza sativa) seedling fixed with a sponge and a plastic cylinder was immersed. 10 young larvae were released into the container, and the container was covered with a plastic lid. The container was allowed to stand in a thermostatic chamber at 25° C., and the numbers of living insects and dead insects were examined after 6 days.

Myzus persicae [3] = test: Insecticidal test against Myzus persicae, spray on radish leaves; conditions: 120 h, 20% acetone aqueous solution sprayed on radish leaves, 25 young larvae, 25° C., after 5 days, read-out: mortality rate
Experimental: (§3) Insecticidal Test Against Myzus persicae
2.5 ml of a 20% acetone aqueous solution prepared to have a predetermined concentration of the test compound was sprayed on the leaves of radish (Raphanus sativus) in which the roots retained water and 25 young larvae were parasitized. After air drying, it was allowed to stand in a thermostatic chamber at 25° C., and the number of living insects and the number of dead insects were examined after 5 days.

Sogatella furcifera = test: Insecticidal test against Sogatella furcifera, spray on rice seedling; conditions: 144 h, acetone solution sprayed on rice seedling, 10 young larvae, 25° C., after 6 days, read-out: mortality rate
Experimental: Insecticidal Test Against Sogatella furcifera
as §2

Spodoptera litura = test: Insecticidal test against Spodopteta litura, cabbage leaf pieces immersed; conditions: 144 h, 1,000 ppm, cabbage leaf pieces immersed 30 seconds, five 2nd instar larvae, 25° C., after 6 days, read-out: mortality rate
Experimental: Insecticidal Test Against Spodopteta litura
Cabbage (Brassicae oleracea) leaf pieces were immersed in a chemical solution prepared to have a predetermined concentration of the test compound for 30 seconds, air-dried, then placed in a 7 cm polyethylene cup with a filter paper laid thereon, and five 2nd instar larvae of Spodoptera litura were released. The container was allowed to stand in a thermostatic chamber at 25° C., and the numbers of living insects and dead insects were examined after 6 days.

Myzus persicae [4] = test: Insecticidal test against Myzus persicae, root part of radish seedling immersed; conditions: 120 h, 2% acetone aqueous solution, 25 young larvae, 25° C., after 5 days, read-out: mortality rate
Experimental: as §3
12.5 ml of a 2% acetone aqueous solution in which the test compound was adjusted to a predetermined concentration was placed in a container, and a root part of a young radish (Raphanus sativus) seedling that was fixed with a sponge and parasitized with 25 young larvae was immersed. The container was allowed to stand in a thermostatic chamber at 25° C., and the numbers of living insects and dead insects were examined after 5 days.

SMILES	mortality at 100 ppm (Nilaparvata lugens [1]) [%]	mortality at 100 ppm (Nilaparvata lugens [2]) [%]	mortality at 100 ppm (Myzus persicae [3]) [%]	mortality at 100 ppm (Sogatella furcifera) [%]	mortality at 1000 ppm (Spodoptera litura) [%]	mortality at 100 ppm (Myzus persicae [4]) [%]
CCSc1c(-c2cn3cnc(C(F)(F)F)cc3n2)nn(C)c1N [compound 39, 4-(ethylthio)-1-methyl-3-(7-(trifluoromethyl)imidazo[1,2-c]pyrimidin-2-yl)-1H-pyrazol-5-amine]	≥ 50	≥ 50	≥ 50	≥ 50		
CCSc1c(-c2cn3cnc(C(F)(F)F)cc3n2)nn(C)c1NC(=O)c1ccccn1 [compound 84, N-(4-(ethylthio)-1-methyl-3-(7-(trifluoromethyl)imidazo[1,2-c]pyrimidin-2-yl)-1H-pyrazol-5-yl)picolinamide]	≥ 50				≥ 50	
CCSc1c(-c2cn3cnc(C(F)(F)F)cc3n2)nn(C)c1N(C)C(=O)OC(C)(C)C [compound 28, t-butyl(4-(ethylthio)-1-methyl-3-(7-(trifluoromethyl)imidazo[1,2-c]pyrimidin-2-yl)-1H-pyrazol-5-yl)(methyl)carbamate]	≥ 50					
CCS(=O)(=O)c1c(-c2nc3cc(C(F)(F)F)ncn3n2)nn(C)c1NC(C)=O [compound 11, N-(4-(Ethylsulfonyl)-1-methyl-3-(7-(trifluoromethyl)-[1,2,4]triazolo[1,5-c]pyrimidin-2-yl)-1H-pyrazol-5-yl)acetamide]	≥ 50	≥ 50	≥ 50	≥ 50		
CCSc1c(-c2nc3cc(C(F)(F)F)ncn3n2)nn(C)c1NC(C)=O [compound 10, N-(4-(ethylthio)-1-methyl-3-(7-(trifluoromethyl)-[1,2,4]triazolo[1,5-c]pyrimidin-2-yl)-1H-pyrazol-5-yl)acetamide]	≥ 50					
CCS(=O)(=O)c1c(-c2cn3cnc(C(F)(F)F)cc3n2)nn(C)c1N [compound 100, 4-(ethylsulfonyl)-1-methyl-3-(7-(trifluoromethyl)imidazo[1,2-c]pyrimidin-2-yl)-1H-pyrazol-5-amine]	≥ 50	≥ 50	≥ 50	≥ 50		
CCSc1c(-c2cn3cnc(C(F)(F)F)cc3n2)nn(C)c1NC(=O)OC(C)(C)C [compound 26, t-butyl(4-(ethylthio)-1-methyl-3-(7-(trifluoromethyl)imidazo[1,2-c]pyrimidin-2-yl)-1H-pyrazol-5-yl)carbamate]				≥ 50		
CCS(=O)(=O)c1c(-c2nc3cc(C(F)(F)F)ncn3c2Br)nn(C)c1NC(=O)C(F)(F)F [compound 54, N-(3-(3-bromo-7-(trifluoromethyl)imidazo[1,2-c]pyrimidin-2-yl)-4-(ethylsulfonyl)-1-methyl-1H-pyrazol-5-yl)-2,2,2-trifluoroacetamide]	≥ 50	≥ 50	≥ 50	≥ 50		
CCS(=O)(=O)c1c(-c2cn3cnc(C(F)(F)F)cc3n2)nn(C)c1NC(=O)C(F)(F)F [compound 1, N-(4-(ethylsulfonyl)-1-methyl-3-(7-(trifluoromethyl)imidazo[1,2-c]pyrimidin-2-yl)-1H-pyrazol-5-yl)-2,2,2-trifluoroacetamide]	≥ 50	≥ 50	≥ 50	≥ 50		≥ 50
CCS(=O)(=O)c1c(-c2cn3cnc(C(F)(F)F)cc3n2)nn(C)c1NC(=O)c1ccccn1 [compound 86, N-(4-(ethylsulfonyl)-1-methyl-3-(7-(trifluoromethyl)imidazo[1,2-c]pyrimidin-2-yl)-1H-pyrazol-5-yl)picolinamide]	≥ 50		≥ 50		≥ 50	
CCSc1c(-c2cn3cnc(C(F)(F)F)cc3n2)nn(C)c1NC(=O)C(F)(F)F [compound 27]	≥ 50		≥ 50	≥ 50		
CCSc1c(-c2nc3cc(C(F)(F)F)ncn3n2)nn(C)c1NC(=O)OC(C)(C)C [compound 4, t-butyl (4-(ethylthio)-1-methyl-3-(7-(trifluoromethyl)-[1,2,4]triazolo[1,5-c]pyrimidin-2-yl)-1H-pyrazol-5-yl)carbamate]	≥ 50					
CCSc1c(-c2nc3cc(C(F)(F)F)ncn3n2)nn(C)c1N [compound 5, 4-(ethylthio)-1-methyl-3-(7-(trifluoromethyl)-[1,2,4]triazolo[1,5-c]pyrimidin-2-yl)-1H-pyrazol-5-amine]			≥ 50			
CCSc1c(-c2cn3cnc(C(F)(F)F)cc3n2)nn(C)c1N(C)C(=O)C(F)(F)F [compound 30, N-(4-(ethylthio)-1-methyl-3-(7-(trifluoromethyl)imidazo[1,2-c]pyrimidin-2-yl)-1H-pyrazol-5-yl)-2,2,2-trifluoro-N-methylacetamide]		≥ 50		≥ 50		
CCSc1c(-c2cn3cnc(C(F)(F)F)cc3n2)nn(C)c1NC [compound 29, 4-(ethylthio)-N,1-dimethyl-3-(7-(trifluoromethyl)imidazo[1,2-c]pyrimidin-2-yl)-1H-pyrazol-5-amine]	≥ 50			≥ 50		
CCS(=O)(=O)c1c(-c2nc3cc(C(F)(F)F)ncn3c2Cl)nn(C)c1NC(=O)C(F)(F)F [compound 53, N-(3-(3-chloro-7-(trifluoromethyl)imidazo[1,2-c]pyrimidin-2-yl)-4-(ethylsulfonyl)-1-methyl-1H-pyrazol-5-yl)-2,2,2-trifluoroacetamide]	≥ 50	≥ 50	≥ 50	≥ 50		

From patent publication US20250143305A1, “PYRAZOLE COMPOUND AND PEST CONTROL AGENT CONTAINING THE SAME AS ACTIVE INGREDIENT” (MITSUI CHEMICALS CROP & LIFE SOLUTIONS, INC., priority 2022, published 2025)
